# Assay results reported in patent publication US7196070B2, “Prophylactic and therapeutic treatment of the ductal epithelium of a mammary gland for cancer” (priority 1995, dated 2007).
# Test system: NMU-induced mammary tumors
# Assay: Prophylaxis of NMU-induced mammary tumors after intraductal injection
# Assay type: in vivo, Sprague Dawley rats
# Settings: rat mammary glands, NMU 50 mg/kg i.v. after treatment, monitored 8 months
# Description: The mammary glands (6 on each side) of six virgin 50 day old Sprague Dawley rats were injected with AdHS-tk on the left side and trypan blue on the right side or left untreated. One rat remained completely untreated with the virus or GCV and served as a positive control for NMU-induced tumorigenesis. On the day of surgery, rats were given an intramuscular injection of 5 μg estradiol valerate and were anesthetized with an isofluorane/O2 mixture. The nipples were cannulated with a 33 gauge needle. Twenty μl of AdHS-tk diluted in trypan blue carrier (1 mM MgCl2, 20 μg/ml polybrene in 10% glycerol, 0.4% trypan blue in saline) at a concentration of 5×10^7 particles/μl were injected into the duct. Carrier control mammary glands received 20 μl of trypan blue carrier alone. An animal was considered treated when at least three glands were successfully injected with trypan blue and another three glands were successfully injected with AdHS-tk. The remaining glands were left untreated. Twelve hrs later, the rats were injected with 125 mg/kg body weight GCV twice daily for three days. […] Five to seven days after GCV treatment, the rats were given an intravenous injection of NMU dissolved in 0.05% acetic acid (Ash Stevens, CO; 50 mg NMU/kg body weight) and were subsequently monitored for general health and the appearance of tumors at weekly intervals for 8 months.
compound,measurement,value
"Nc1nc(O)c2ncn(COC(CO)CO)c2n1 [Ganciclovir, ganciclovir]",% of Glands with Tumor,25.0%
same,No. of Tumors,5
